From US20190211020A1 (Agency for Science, Technology and Research, priority 2012, published 2019)
Read-outs that look alike come from different tables or passages of the source.

Assays:
[1] = Pharmacokinetics assays (plasma and brain); type: in vivo; set-up: AUC(0-t) / AUC(0-inf): concentration or dose not given beside the values
[2] = system: eIF4E Ser209 phosphorylation in Hela cells; assay: MNK cell-based assay (AlphaScreen SureFire, eIF4E Ser209 phosphorylation); conditions: Homo sapiens, read-out: IC50 Hela
Outline: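 Hela cells (30,000/well) exposed to test compound in serum-free medium for 2 h at 37 °C, then lysed. Phospho-Ser209 eIF4E quantified by AlphaScreen SureFire; IC50 obtained by non-linear regression of signal versus log compound concentration.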

[3] = system: eIF4E phosphorylation in K562 cells; assay: Western blot of eIF4E phosphorylation in K562 cells; type: cell-based; conditions: various concentrations, 24 h
Experimental: K562 cell line was obtained from the ATCC, and grown in RPMI supplemented with 10% FCS, L-glutamine, and penicillin/streptomycin.
Exponentially growing cells were plated at 2×10^5 cells/ml, and whole cell lysate processed for western blot analysis using antibodies recognizing eIF4E, phospho-eIF4E (Cell signaling Technology),

[4] = system: phospho-eIF4E S209 in BC-CML primary cells; assay: Immunofluorescence of phospho-eIF4E in BC-CML primary cells; type: cell-based, human; conditions: 48 h
From the text: (§1) Cord Blood (CB) samples were purchased from the Singapore Cord Blood bank. CML samples were the Singapore General Hospital after signed informed consent under local IRB-approved procedures. MNCs were obtained using Ficoll separation, and CD34^+ cells selected by immunomagnetic beads (Miltenyi Biotech, Germany).
Cells (1×10^5) were cytospun onto glass slides, fixed with 4% paraformaldehye, and stained with mouse monoclonal antibodies against activated β-catenin (clone 8E7, Millipore, UK), or rabbit monoclonal antibodies against phospho-eIF4E S209 (EP2151Y, Abcam, UK). Slides were then stained with either PE-conjugated anti-mouse or FITC-conjugated anti-rabbit antibodies. Images were obtained with the use of a fluorescence microscope (Olympus IX71S1F3) at 40× magnification.

[5] = system: CD34+ BC cells; assay: Serial replating assay, CD34+ BC-CML cells; type: cell-based, human; conditions: for serial replating efficiency of CD34+ BC cells compared to DMSO: increasing dose, 48 hr treatment, three replatings (>8 weeks)
From the text: as §1
CD34-enriched CB and BC cells were thawed and allowed to recover overnight in serum-free StemPro media (Invitrogen, Carlsbad, Calif.), supplemented with human growth factors and 1× nutrient supplement (Invitrogen). Cells were then subjected to drug treatment for 48 hr, harvested, washed, and seeded in methycellulose (H4434, […] Technologies, Canada). Colonies were enumerated after 2 weeks, individually picked, and replated in fresh methylcellulose in a 96-well format, and counted at 2 weeks. Three rounds of serial replating (representing >8 weeks in culture) were performed.

[6] = target: T1, MNK1 (Homo sapiens, UniProt Q9BUB5); assay: In vitro MNK kinase assay (Caliper LabChip mobility shift), MNK1; type: biochemical; conditions: enzymatic; 1.2 mM ATP
T1 construct: recombinant kinase domains expressed in E. coli; fused on or other part: N-terminal GST tag, removed with PreScission protease before the test
Experimental: (§2) MNK1 and MNK2 inhibitor activity was determined using recombinant kinase domains expressed in E. coli. MNK1 and MNK2 were expressed as GST fusion proteins and the GST tag was removed using PreScission protease. After concentration to 10-15 mg/ml the proteins were flash frozen in liquid nitrogen and stored at −80° C.
(§3) This reaction mixture was then used immediately for the activation of the MNKs. The activation of the MNK1 was performed by incubating 5.0 μM of MNK1 with 0.3 μM of activated ERK2 and 500 μM ATP at 30° C. for 6 hours. The activation of MNK2 was performed by incubating 50 μM of MNK2 with 3.0 μM of activated ERK2 and 500 μM ATP at 30° C. for 2 hours. The activated MNKs were stored at −20° C. until required for assay.
(§4) Kinase assays were performed on the Caliper Life Sciences (Mountain View, Calif.) Microfluidics LabChip® Platform. Enzyme activity is analyzed by ‘sipping’ reactions from a microtitre plate into LabChip. The data signature is generated by the shift in mobility of non-phosphorylated peptide substrates and phosphorylated products by electrophoresis in the chip and detected by LED induced fluorescence. […] The data is analyzed by calculating the relative heights of the substrate and product peaks and the product/(product+substrate) peak ratio is reported.
(§5) The following buffers were used to assay kinase activity:
(§6) Reconstitution buffer: 10 mM HEPES/NaOH pH7.5, 0.003% Brij® L23, 0.004% TWEEN® 20.
(§7) Separation buffer: 100 mM HEPES/NaOH pH7.3, 0.02% Brij® L23, 5% DMSO, 0.1% CR3, 1 mM EDTA pH8.0.
(§8) The reaction was stopped by the addition of […] termination buffer.
(§9) Inhibition constants (IC50) were determined by plotting kinase activity versus log compound concentration and fitting with a non-linear regression algorithm using GraphPad Prism (GraphPad Software Inc.).

[7] = target: T2, MNK2 (Homo sapiens, UniProt Q9HBH9); assay: In vitro MNK kinase assay (Caliper LabChip mobility shift), MNK2; type: biochemical; conditions: enzymatic; 250 μM ATP
T2 construct: GST (cleaved yes); made in house; host or cells: E. coli
Experimental: as §2, §3, §4, §5, §6, §7, §8, §9

[8] = system: K562 cells (myelogenous leukemia) over-expressing eIF4E; assay: Cell cytotoxicity assay (CellTiter-Glo), K562; type: cell-based; conditions: for IC50: Homo sapiens, cell viability; for change of IC50 when treatment duration was extended from 48 hours to 6 days, K562: K562 cells over-expressing eIF4E
Experimental: (§10) Cancer cell lines, MV-4-11 (leukemia), P116.c139 (acute T cell leukemia) and D1.1 (acute T cell leukemia), were purchased from ATCC and cultured according to supplier's recommendations. K562 cells (myelogenous leukemia) over-expressing eIF4E, were also used for the cytotoxicity assay. For cells treated for 48 hours, 5000 cells were seeded in 70 μl of growth medium in black, flat-bottom 96-well plate. For cells treated for six days, 1000 cells were seeded in 70 μl of growth medium in black, flat-bottom 96-well plate. […] 50 μl of the diluted compounds was added to the cells and incubated at 37° C. in 5% CO2. After 48 hours or six days treatment, cell viability was determined by CellTiter-Glo Luminescent Cell Viability Assay (Promega, Madison, Wis.). 120 μl of the reagent was added to the cells and luminescence was measured using Tecan Safire Reader. Data was analysed with Graphpad Prism software and the figures represented indicate the half maximal inhibitory concentration (IC50). Error bars denote standard deviation (SD).

[9] = system: MV-4-11 (leukemia); assay: Cell cytotoxicity assay (CellTiter-Glo), MV-4-11; type: cell-based; conditions: Homo sapiens, cell viability
Experimental: as §10

[10] = system: D1.1 (acute T cell leukemia); assay: Cell cytotoxicity assay (CellTiter-Glo), D1.1; type: cell-based; conditions: for IC50: T-cell, cell viability
Experimental: as §10

[11] = system: P116.c139 (acute T cell leukemia); assay: Cell cytotoxicity assay (CellTiter-Glo), P116.c139; type: cell-based; conditions: for IC50: T-cell, cell viability
Experimental: as §10

[12] = system: eIF4E phosphorylation in BC GMPs; conditions: background; cited from earlier work
[13] = system: active nuclear beta-catenin in BC GMPs; conditions: background; cited from earlier work
[14] = system: CD34+BC cells (including those carrying T315I mutation); conditions: background; cited from earlier work
[15] = eIF4E Ser209 phosphorylation, Hela cells, 2 hours
[16] = K562, 144 h, 6 days, read-out: IC50 after 6 days of treatment, K562
[17] = K562, 48 hours, read-out: IC50 after 48 hours of treatment, K562
[18] = MV4-11, 144 h, 6 days, read-out: IC50 after 6 days of treatment, MV-4-11
[19] = MV4-11, 48 hours, read-out: IC50 after 48 hours of treatment, MV-4-11
[20] = 144 h, 6 days, read-out: IC50 after 6 days of treatment, D1.1
[21] = 48 hours, read-out: IC50 after 48 hours of treatment, D1.1
[22] = 144 h, 6 days, read-out: IC50 after 6 days of treatment, P116.c139
[23] = 48 hours, read-out: IC50 after 48 hours of treatment, P116.c139

T1 sequence (Q9BUB5 1-424 isoform Q9BUB5-2): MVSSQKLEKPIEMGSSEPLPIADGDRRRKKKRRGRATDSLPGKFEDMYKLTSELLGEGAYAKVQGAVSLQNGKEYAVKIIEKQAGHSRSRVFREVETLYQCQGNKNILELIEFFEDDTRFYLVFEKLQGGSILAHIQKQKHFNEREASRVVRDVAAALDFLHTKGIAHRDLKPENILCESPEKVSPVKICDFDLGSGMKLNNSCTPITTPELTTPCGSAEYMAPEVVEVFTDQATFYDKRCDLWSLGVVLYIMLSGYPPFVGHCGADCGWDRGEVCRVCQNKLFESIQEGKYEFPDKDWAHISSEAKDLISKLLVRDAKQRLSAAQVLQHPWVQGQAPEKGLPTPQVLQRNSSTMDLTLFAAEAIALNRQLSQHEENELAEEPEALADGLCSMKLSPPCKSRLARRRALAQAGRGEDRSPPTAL
T2 sequence (Q9HBH9 84-388 limits assumed): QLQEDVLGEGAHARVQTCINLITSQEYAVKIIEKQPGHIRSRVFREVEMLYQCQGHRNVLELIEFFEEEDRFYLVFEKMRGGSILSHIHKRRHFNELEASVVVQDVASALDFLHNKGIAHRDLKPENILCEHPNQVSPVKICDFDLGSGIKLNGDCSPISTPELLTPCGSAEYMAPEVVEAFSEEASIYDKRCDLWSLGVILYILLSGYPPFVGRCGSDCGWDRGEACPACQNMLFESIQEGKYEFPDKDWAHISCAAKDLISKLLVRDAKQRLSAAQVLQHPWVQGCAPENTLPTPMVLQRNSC

SMILES: N#Cc1ccc(-c2cnc3cnc(-c4ccc(C(=O)N5CCOCC5)cc4)cn23)cc1 [Entry 10]
- Brain AUC inf ([1]; brain): 775 ng·h/g
- Brain AUC last ([1]; brain): 754 ng·h/g
- Brain Cmax ([1]; brain): 469 ng/g
- half-life ([1]; brain, read-out: Brain T1/2 (converted)): 41.4 min
- Tmax ([1]; brain, read-out: Brain Tmax): 60 min
- Plasma/Brain Ratio ([1]; in vivo): 0.06
- AUC(0-inf) ([1]; plasma): 12800 ng·h/mL
- AUC(0-t) ([1]; plasma, read-out: Plasma AUC last): 12700 ng·h/mL
- half-life ([1]; plasma, read-out: Plasma T1/2 (converted)): 66.6 min
- Tmax ([1]; plasma, read-out: Plasma Tmax): 30 min
- Cmax ([1]; plasma, species, dose and route not given): 6400 ng/mL

SMILES: CN1CCN(C(=O)c2ccc(-c3cn4c(-c5ccc(O)cc5)cnc4cn3)cc2)CC1 [Example 1, (4-(3-(4-hydroxyphenyl)imidazo[1,2-a]pyrazin-6-l)phenyl)(4-methylpiperazin-1-yl)methanone]
- IC50 [2, 15]: < 1 µM
- eIF4E phosphorylation in K562 (BC-CML cell line), Western blot [3]: prevent eIF4E phosphorylation
- eIF4E phosphorylation in BC-CML primary cells, immunofluorescence [4]: prevent eIF4E phosphorylation
- serial replating efficiency of CD34+ BC cells compared to DMSO [5]: retards the serial replating efficiency

SMILES: O=C(c1ccc(-c2cn3c(-c4ccc(O)cc4)cnc3cn2)cc1)N1CCOCC1 [Example 2, (4-(3-(4-hydroxyphenyl)imidazo[1,2-a]pyrazin-6-yl)phenyl)(morpholino)methanone]
- IC50 [2, 15]: < 1 µM
- eIF4E phosphorylation in K562 (BC-CML cell line), Western blot [3]: prevent eIF4E phosphorylation
- eIF4E phosphorylation in BC-CML primary cells, immunofluorescence [4]: prevent eIF4E phosphorylation
- ability of BC cells to serial replate ([5]; at 10.0 μM and 20.0 μM): potently impaired the ability of BC cells to serial replate
- serial replating efficiency of CD34+ BC cells compared to DMSO [5]: retards serial replating efficiency

SMILES: CN1CCN(C(=O)c2ccc(-c3cn4c(-c5ccc(C#N)cc5)cnc4cn3)cc2)CC1 [Example 6, 4-(6-(4-(4-methylpiperazine-1-carbonyl)phenyl)imidazo[1,2-a]pyrazin-3-yl)benzonitrile]
- IC50 ([2]; HeLa, 2 h): < 1 µM
- eIF4E phosphorylation in K562 (BC-CML cell line), Western blot [3]: prevent eIF4E phosphorylation
- eIF4E phosphorylation in BC-CML primary cells, immunofluorescence [4]: prevent eIF4E phosphorylation

SMILES: Cc1cc(-c2cn3c(-c4ccc(C#N)cc4)cnc3cn2)ccc1C(=O)N1CCC(N)CC1 [Example 27, 4-(6-(4-(4-aminopiperidine-1-carbonyl)-3-methylphenyl)imidazo [1,2-a]pyrazin-3-yl)benzonitrile]
- IC50 [6]: < 0.1 µM
- IC50 [7]: < 0.1 µM
- IC50 [2, 15]: < 1 µM

SMILES: CC(=O)NC1CCN(C(=O)c2ccc(-c3cn4c(-c5ccc(Cl)cc5)cnc4cn3)cc2)CC1 [Example 49]
- IC50 [6]: < 1 µM
- IC50 [7]: < 1 µM
- IC50 [2, 15]: < 1 µM

SMILES: CC(=O)Nc1cc(-c2ccc3ncc(-c4ccc(C#N)cc4)n3n2)ccc1C(=O)N1CCOCC1 [Example 80, N-(5-(3-(4-cyanophenyl)imidazo[1,2-b]pyridazin-6-yl)-2-(morpholine-4-carbonyl)phenyl)acetamide]
- IC50 [6]: < 0.1 µM
- IC50 [7]: < 0.1 µM
- IC50 [2, 15]: < 1 µM

SMILES: N#Cc1ccc(-c2cnc3ccc(-c4ccc(C(=O)N5CCN(c6ccncc6)CC5)cc4)cn23)cc1 [Example 125, 4-(6-(4-(4-(pyridin-4-yl)piperazine-1-carbonyl)phenyl)imidazo[1,2-a]pyridin-3-yl)benzonitrile]
- IC50 [6]: < 0.1 µM
- IC50 [7]: < 0.1 µM
- IC50 [2, 15]: < 1 µM

SMILES: CN1CCN(C2CCN(C(=O)c3ccc(-c4ccc5ncc(-c6ccc(C#N)cc6)n5c4)cc3)CC2)CC1 [Example 133, 4-(6-(4-(4-(4-methylpiperazin-1-yl)piperidine-1-carbonyl)phenyl)imidazo[1,2-a]pyridin-3-yl)benzonitrile]
- IC50 [2, 15]: < 1 µM
- IC50 [8, 16]: 16 µM
- IC50 [8, 17]: 23 µM
- change of IC50 when treatment duration was extended from 48 hours to 6 days, K562 [8]: not influenced by the treatment duration
- IC50 [9, 18]: 1.5 µM
- IC50 [9, 19]: 2.8 µM
- change of IC50 when treatment duration was extended from 48 hours to 6 days, D1.1 [10]: not influenced by the treatment duration
- IC50 [10, 20]: 11.2 µM
- IC50 [10, 21]: 15.8 µM
- change of IC50 when treatment duration was extended from 48 hours to 6 days, P116.c139 [11]: decrease the IC50 by more than half-fold
- IC50 [11, 22]: 4 µM
- IC50 [11, 23]: 10.9 µM

SMILES: CN1CCN(C(=O)c2ccc(-c3ccc4ncc(-c5ccc(O)cc5)n4c3)cc2)CC1 [Example 175, (4-(3-(4-hydroxyphenyl)imidazo[1,2-a]pyridin-6-yl)phenyl)(4-methylpiperazin-1-yl)methanone]
- IC50 [8, 16]: 21.2 µM
- IC50 [8, 17]: 18.2 µM
- change of IC50 when treatment duration was extended from 48 hours to 6 days, K562 [8]: not influenced by the treatment duration
- IC50 [9, 18]: 0.3 µM
- IC50 [9, 19]: 0.9 µM
- change of IC50 when treatment duration was extended from 48 hours to 6 days, D1.1 [10]: not influenced by the treatment duration
- IC50 [10, 20]: 10.1 µM
- IC50 [10, 21]: 12.3 µM
- change of IC50 when treatment duration was extended from 48 hours to 6 days, P116.c139 [11]: decrease the IC50 by more than half-fold
- IC50 [11, 22]: 5.7 µM
- IC50 [11, 23]: 12.5 µM

SMILES: Cc1ccc(NC(=O)c2ccc(CN3CCN(C)CC3)cc2)cc1Nc1nccc(-c2cccnc2)n1 [imatinib]
- eIF4E phosphorylation in BC GMPs [12]: not
- accumulation of active nuclear beta-catenin in BC GMPs [13]: not
- ability of CD34+ BC cells to serially replate for more than 8 weeks in methylcellulose [14]: only partially impaired
